# US7118895B2, “Process for producing aglycon by using diglycosidase and flavor-improved food containing the aglycon and converting agent to be used in the process” (Amano Enzyme Inc., priority 2000, dated 2006)
# Tested on: Crude diglycosidase
# Assay: Examination of temperature in the conversion into isoflavone aglycons by diglycosidase using soybean materials
# Assay type: biochemical, Penicillium multicolor IAM7153
# Set-up: Decomposition efficiency of glycitin family in roasted soy flour / Decomposition efficiency of daidzin family in roasted soy flour / Decomposition efficiency of genistin family in soymilk / Decomposition efficiency of daidzin family in soymilk / Decomposition efficiency of glycitin family in defatted soybean / Decomposition efficiency of daidzin family in defatted soybean: concentration or dose not given beside the values
# Method: Into 400 μL of 20 mM acetate buffer of pH 4.0 was suspended 50 mg of each of various soybean materials (roasted soy flour (manufactured by Fuji Shokuryo K.K.), soymilk (manufactured by Gitoh Shokuhin K.K.), defatted soybean (manufactured by Fuji Seiyu K.K.), concentrated soybean protein (manufactured by Fuji Seiyu K.K.)), whereby a substrate solution was prepared. Crude diglycosidase was diluted with 20 mM acetate buffer of pH 4.0 to be the glycosidase activity of 1.88 AU/mL. Fifty μL of the enzyme solution was mixed with the substrate solution and the whole was reacted at 80, 65, 55, 45, 37, or 30° C. at the total volume of 500 μL. To the reaction mixture was added 700 μL of ethanol after 0, 1, 3, and 6 hours of the reaction. After stirring and ultrasonication, the mixture was subjected to centrifugal separation at 15,000 rpm and 4° C. for 10 minutes. The supernatant was filtered through a filter and the existence of isoflavone glycosides and aglycon isoflavones contained in the reaction mixture was detected by HLPC.
# [1] = 30° C., heat treatment of enzyme no, reaction time 0 h
# [2] = 30° C., heat treatment of enzyme no, reaction time 1 h
# [3] = 30° C., heat treatment of enzyme no, reaction time 3 h
# [4] = 30° C., heat treatment of enzyme no, reaction time 6 h
# [5] = 30° C., heat treatment of enzyme yes, reaction time 6 h
# [6] = 30 °C, heat treatment of enzyme: no, 0 h
# [7] = 30 °C, heat treatment of enzyme: no, 1 h
# [8] = 30 °C, heat treatment of enzyme: no, 3 h
# [9] = 30 °C, heat treatment of enzyme: no, 6 h
# [10] = 30 °C, heat treatment of enzyme: yes, 6 h
# [11] = 45° C., heat treatment of enzyme no, reaction time 0 h
# [12] = 45° C., heat treatment of enzyme no, reaction time 1 h
# [13] = 45° C., heat treatment of enzyme no, reaction time 3 h
# [14] = 45° C., heat treatment of enzyme no, reaction time 6 h
# [15] = 45° C., heat treatment of enzyme yes, reaction time 6 h
# [16] = 45 °C, heat treatment of enzyme: no, 0 h
# [17] = 45 °C, heat treatment of enzyme: no, 1 h
# [18] = 45 °C, heat treatment of enzyme: no, 3 h
# [19] = 45 °C, heat treatment of enzyme: no, 6 h
# [20] = 45 °C, heat treatment of enzyme: yes, 6 h
# [21] = 55° C., heat treatment of enzyme no, reaction time 0 h
# [22] = 55° C., heat treatment of enzyme no, reaction time 1 h
# [23] = 55° C., heat treatment of enzyme no, reaction time 3 h
# [24] = 55° C., heat treatment of enzyme no, reaction time 6 h
# [25] = 55° C., heat treatment of enzyme yes, reaction time 6 h
# [26] = 55 °C, heat treatment of enzyme: no, 0 h
# [27] = 55 °C, heat treatment of enzyme: no, 1 h
# [28] = 55 °C, heat treatment of enzyme: no, 3 h
# [29] = 55 °C, heat treatment of enzyme: no, 6 h
# [30] = 55 °C, heat treatment of enzyme: yes, 6 h
# [31] = 65° C., heat treatment of enzyme no, reaction time 0 h
# [32] = 65° C., heat treatment of enzyme no, reaction time 1 h
# [33] = 65° C., heat treatment of enzyme no, reaction time 3 h
# [34] = 65° C., heat treatment of enzyme no, reaction time 6 h
# [35] = 65° C., heat treatment of enzyme yes, reaction time 6 h
# [36] = 65 °C, heat treatment of enzyme: no, 0 h
# [37] = 65 °C, heat treatment of enzyme: no, 1 h
# [38] = 65 °C, heat treatment of enzyme: no, 3 h
# [39] = 65 °C, heat treatment of enzyme: no, 6 h
# [40] = 65 °C, heat treatment of enzyme: yes, 6 h
# [41] = 80° C., heat treatment of enzyme no, reaction time 0 h
# [42] = 80° C., heat treatment of enzyme no, reaction time 1 h
# [43] = 80° C., heat treatment of enzyme no, reaction time 3 h
# [44] = 80° C., heat treatment of enzyme no, reaction time 6 h
# [45] = 80° C., heat treatment of enzyme yes, reaction time 6 h
# [46] = 80 °C, heat treatment of enzyme: no, 0 h
# [47] = 80 °C, heat treatment of enzyme: no, 1 h
# [48] = 80 °C, heat treatment of enzyme: no, 3 h
# [49] = 80 °C, heat treatment of enzyme: no, 6 h
# [50] = 80 °C, heat treatment of enzyme: yes, 6 h
smiles,measurement,setting,value
"CC(=O)OC[C@H]1O[C@@H](Oc2cc(O)c3c(=O)c(-c4ccc(O)cc4)coc3c2)[C@H](O)[C@@H](O)[C@@H]1O [acetylgenistin, 6″-O-acetylgenistin]",Decomposition efficiency of genistin family in concentrated soybean protein,[1],43.1%
same,Decomposition efficiency of genistin family in defatted soybean,[1],1.7%
same,Decomposition efficiency of genistin family in concentrated soybean protein,[2],43.2%
same,Decomposition efficiency of genistin family in defatted soybean,[2],1.3%
same,Decomposition efficiency of genistin family in concentrated soybean protein,[3],43.0%
same,Decomposition efficiency of genistin family in defatted soybean,[3],0.7%
same,Decomposition efficiency of genistin family in concentrated soybean protein,[4],42.5%
same,Decomposition efficiency of genistin family in defatted soybean,[4],0.1%
same,Decomposition efficiency of genistin family in concentrated soybean protein,[5],41.5%
same,Decomposition efficiency of genistin family in defatted soybean,[5],0.4%
same,Decomposition efficiency of genistin family in roasted soy flour,[6],45.5%
same,Decomposition efficiency of genistin family in soymilk,[6],0.9%
same,Decomposition efficiency of genistin family in roasted soy flour,[7],45.3%
same,Decomposition efficiency of genistin family in soymilk,[7],not detected
same,Decomposition efficiency of genistin family in roasted soy flour,[8],43.8%
same,Decomposition efficiency of genistin family in soymilk,[8],not detected
same,Decomposition efficiency of genistin family in roasted soy flour,[9],40.6%
same,Decomposition efficiency of genistin family in soymilk,[9],not detected
same,Decomposition efficiency of genistin family in roasted soy flour,[10],43.8%
same,Decomposition efficiency of genistin family in soymilk,[10],0.9%
same,Decomposition efficiency of genistin family in concentrated soybean protein,[11],43.0%
same,Decomposition efficiency of genistin family in defatted soybean,[11],1.5%
same,Decomposition efficiency of genistin family in concentrated soybean protein,[12],42.8%
same,Decomposition efficiency of genistin family in defatted soybean,[12],0.8%
same,Decomposition efficiency of genistin family in concentrated soybean protein,[13],41.0%
same,Decomposition efficiency of genistin family in defatted soybean,[13],0.3%
same,Decomposition efficiency of genistin family in concentrated soybean protein,[14],39.6%
same,Decomposition efficiency of genistin family in defatted soybean,[14],0.2%
same,Decomposition efficiency of genistin family in concentrated soybean protein,[15],38.9%
same,Decomposition efficiency of genistin family in defatted soybean,[15],0.2%
same,Decomposition efficiency of genistin family in roasted soy flour,[16],45.3%
same,Decomposition efficiency of genistin family in soymilk,[16],0.9%
same,Decomposition efficiency of genistin family in roasted soy flour,[17],43.6%
same,Decomposition efficiency of genistin family in soymilk,[17],not detected
same,Decomposition efficiency of genistin family in roasted soy flour,[18],38.5%
same,Decomposition efficiency of genistin family in soymilk,[18],not detected
same,Decomposition efficiency of genistin family in roasted soy flour,[19],31.7%
same,Decomposition efficiency of genistin family in soymilk,[19],not detected
same,Decomposition efficiency of genistin family in roasted soy flour,[20],39.5%
same,Decomposition efficiency of genistin family in soymilk,[20],0.6%
same,Decomposition efficiency of genistin family in concentrated soybean protein,[21],42.9%
same,Decomposition efficiency of genistin family in defatted soybean,[21],1.7%
same,Decomposition efficiency of genistin family in concentrated soybean protein,[22],43.1%
same,Decomposition efficiency of genistin family in defatted soybean,[22],0.7%
same,Decomposition efficiency of genistin family in concentrated soybean protein,[23],41.1%
same,Decomposition efficiency of genistin family in defatted soybean,[23],0.2%
same,Decomposition efficiency of genistin family in concentrated soybean protein,[24],39.0%
same,Decomposition efficiency of genistin family in defatted soybean,[24],0.1%
same,Decomposition efficiency of genistin family in concentrated soybean protein,[25],41.1%
same,Decomposition efficiency of genistin family in defatted soybean,[25],0.4%
same,Decomposition efficiency of genistin family in roasted soy flour,[26],45.7%
same,Decomposition efficiency of genistin family in soymilk,[26],0.6%
same,Decomposition efficiency of genistin family in roasted soy flour,[27],42.5%
same,Decomposition efficiency of genistin family in soymilk,[27],not detected
same,Decomposition efficiency of genistin family in roasted soy flour,[28],34.0%
same,Decomposition efficiency of genistin family in soymilk,[28],not detected
same,Decomposition efficiency of genistin family in roasted soy flour,[29],27.3%
same,Decomposition efficiency of genistin family in soymilk,[29],not detected
same,Decomposition efficiency of genistin family in roasted soy flour,[30],39.9%
same,Decomposition efficiency of genistin family in soymilk,[30],0.7%
same,Decomposition efficiency of genistin family in concentrated soybean protein,[31],43.1%
same,Decomposition efficiency of genistin family in defatted soybean,[31],1.5%
same,Decomposition efficiency of genistin family in concentrated soybean protein,[32],45.2%
same,Decomposition efficiency of genistin family in defatted soybean,[32],1.2%
same,Decomposition efficiency of genistin family in concentrated soybean protein,[33],44.0%
same,Decomposition efficiency of genistin family in defatted soybean,[33],1.2%
same,Decomposition efficiency of genistin family in concentrated soybean protein,[34],43.4%
same,Decomposition efficiency of genistin family in defatted soybean,[34],1.1%
same,Decomposition efficiency of genistin family in concentrated soybean protein,[35],42.3%
same,Decomposition efficiency of genistin family in defatted soybean,[35],1.3%
same,Decomposition efficiency of genistin family in roasted soy flour,[36],45.5%
same,Decomposition efficiency of genistin family in soymilk,[36],0.9%
same,Decomposition efficiency of genistin family in roasted soy flour,[37],43.6%
same,Decomposition efficiency of genistin family in soymilk,[37],not detected
same,Decomposition efficiency of genistin family in roasted soy flour,[38],40.5%
same,Decomposition efficiency of genistin family in soymilk,[38],not detected
same,Decomposition efficiency of genistin family in roasted soy flour,[39],38.8%
same,Decomposition efficiency of genistin family in soymilk,[39],not detected
same,Decomposition efficiency of genistin family in roasted soy flour,[40],44.3%
same,Decomposition efficiency of genistin family in soymilk,[40],1.1%
same,Decomposition efficiency of genistin family in concentrated soybean protein,[41],43.0%
same,Decomposition efficiency of genistin family in defatted soybean,[41],1.5%
same,Decomposition efficiency of genistin family in concentrated soybean protein,[42],44.0%
same,Decomposition efficiency of genistin family in defatted soybean,[42],1.8%
same,Decomposition efficiency of genistin family in concentrated soybean protein,[43],43.6%
same,Decomposition efficiency of genistin family in defatted soybean,[43],2.1%
same,Decomposition efficiency of genistin family in concentrated soybean protein,[44],43.4%
same,Decomposition efficiency of genistin family in defatted soybean,[44],2.5%
same,Decomposition efficiency of genistin family in concentrated soybean protein,[45],41.4%
same,Decomposition efficiency of genistin family in defatted soybean,[45],2.4%
same,Decomposition efficiency of genistin family in roasted soy flour,[46],45.3%
same,Decomposition efficiency of genistin family in soymilk,[46],0.9%
same,Decomposition efficiency of genistin family in roasted soy flour,[47],48.5%
same,Decomposition efficiency of genistin family in soymilk,[47],0.9%
same,Decomposition efficiency of genistin family in roasted soy flour,[48],48.2%
same,Decomposition efficiency of genistin family in soymilk,[48],1.0%
same,Decomposition efficiency of genistin family in roasted soy flour,[49],47.7%
same,Decomposition efficiency of genistin family in soymilk,[49],2.3%
same,Decomposition efficiency of genistin family in roasted soy flour,[50],43.4%
same,Decomposition efficiency of genistin family in soymilk,[50],2.5%
